Where a name gives a salt, the structure may show the parent alone. Read-outs that look alike come from different tables or passages of the source.
Test system: MAI
Experiment: antibiotic sensitivity (MIC) of MAI strains, paraffin slide culture and microliter assays
Assay type: cell-based, Mycobacterium avium-intracellulare
Parameters: key: NG: No Growth
Source text: The present invention has met the above-described need. In one embodiment, it provides a method of automatically testing the sensitivity of a paraffinophilic microorganism to different antimicrobial agents, such as antibiotics, and concentrations thereof, by providing a plurality of receptacles, each containing an amount of liquid medium, an antimicrobial agent to be tested and the microorganism to be tested. In each of the receptacles is placed a slide containing a paraffin source. The receptacles are then incubated, after which a light scatter sensing means automatically and sequentially monitors the extent of microorganism growth on the slides. The extent of colony growth is employed to determine which antimicrobial agent in which concentration is effective to resist growth of the microorganism. A preferred light scatter sensing means is a nephelometer.
Referring specifically to FIG. 1, there is shown a preferred embodiment of the present invention usable in a method of automatically testing the sensitivity of a pure culture of a microorganism to different antimicrobial agents and concentrations thereof. In this embodiment, a microorganism, which may have been previously speciated as by the technique taught in U.S. Pat. No. 5,153, 119, has been introduced into a plurality of receptacles, each containing an amount of liquid medium and antimicrobial agent to be tested. A paraffin slide is introduced into each of the receptacles which are subsequently incubated. The receptacles 2-22 (even numbers only) are fixedly secured to an elongated, substantially rigid movable carrier member 26, such that the receptacles 2-22 will be translated therewith in the direction shown by the arrow A. The carrier member 26 may be made of any suitable material, such as aluminum, steel, stainless steel, or resinous plastic, for example. The receptacles 2-22, respectively, contain slides 32-52 (even numbers only). The slides 32-52 are fixedly secured, respectively, within receptacles 2-22 which may test tubes. The slides 32-52 are generally oriented so as to have their elongated direction aligned with the direction of travel of the carrier 26. As the carrier moves in the direction of arrow A, the slides 2-22 will sequentially be positioned in operative relationship to the light scatter sensing means which consists of light source 60, which directs a light beam toward light detector 62. In the preferred embodiment, a beam of visible light from light source 60 will impinge upon slide 32, with the growth of the microorganism thereon producing a corresponding scatter of light which is received by the light receiving sensor 62 and converts the received light into an appropriate output electrical signal which will be delivered to computer means 64. The computer means 64, in turn, provides output to output means 66, which may conveniently be a display, such as a cathode ray tube or a hard copy printer, for example. The degree of light scatter will be related to the extent of microorganism growth with light scatter increasing as growth on the slide increases.
The computer means 64 may be a general purpose digital microprocessor. It may be programmed in a manner readily known to those skilled in the art to sequentially compare the light scatter value of each slide 32-52 with that of a control slide and to provide an output to output means 66, such as a visual screen display or hard copy, with or without prior enhancement, which indicates the difference between the control slide and the specific slides containing the same pure culture of a paraffinophilic microorganism, but exposed to different concentrations of different or the same antimicrobial agents, such an antibiotics. In this manner, there is provided the minimal concentration level of a specific antimicrobial agent that must be used to control growth of the microorganism. Also, the minimum bactericidal concentration may be determined. […]

## O=C(O)c1cn(C2CC2)c2cc(N3CCNCC3)c(F)cc2c1=O [ciprofloxacin-HCl]
Exp. Series II, strain 1
  Days to Confluency: 9 days
Exp. Series II, strain 2
  Days to Confluency: 9 days
Exp. Series II, strain 3
  Days to Confluency: NG
  MIC: NG
Exp. Series II, strain 4
  Days to Confluency: 10 days
Exp. Series II, strain 5
  Days to Confluency: 9 days
Exp. Series II, strain 6
  Days to Confluency: 10 days
Exp. Series II, strain 7
  Days to Confluency: 10 days
Exp. Series II, strain 8
  Days to Confluency: 9 days
Exp. Series II, strain 9
  Days to Confluency: 10 days
Exp. Series II, strain 10
  Days to Confluency: 7 days
Exp. Series II, strain 11
  Days to Confluency: 7 days
Exp. Series II, strain 12
  Days to Confluency: 7 days
Exp. Series II, strain 13
  Days to Confluency: 8 days
Exp. Series II, strain 14
  Days to Confluency: 7 days
Exp. Series II, strain 15
  Days to Confluency: 7 days
Exp. Series II, strain 16
  Days to Confluency: 7 days
Exp. Series III, strain 1
  Days to Confluency: 7 days
Exp. Series III, strain 2
  Days to Confluency: 8 days
Exp. Series III, strain 3
  Days to Confluency: 8 days
Exp. Series III, strain 4
  Days to Confluency: 9 days
Exp. Series III, strain 5
  Days to Confluency: 8 days
Exp. Series III, strain 6
  Days to Confluency: 9 days
Exp. Series III, strain 7
  Days to Confluency: 8 days
Exp. Series III, strain 8
  Days to Confluency: 8 days
Exp. Series III, strain 9
  Days to Confluency: 8 days
Exp. Series III, strain 10
  Days to Confluency: 6 days
Exp. Series III, strain 11
  Days to Confluency: 6 days
Exp. Series III, strain 12
  Days to Confluency: 6 days
Exp. Series III, strain 13
  Days to Confluency: 7 days
Exp. Series III, strain 14
  Days to Confluency: 7 days
Exp. Series III, strain 15
  Days to Confluency: 7 days
Exp. Series III, strain 16
  Days to Confluency: 6 days
Mycobacterium avium-intracellulare, Exp. Series II, strain 1, read-out: MIC
  MIC: 3.6 µg/mL
Mycobacterium avium-intracellulare, Exp. Series II, strain 2, read-out: MIC
  MIC: 18.2 µg/mL
Mycobacterium avium-intracellulare, Exp. Series II, strain 4, read-out: MIC
  MIC: 3.6 µg/mL
Mycobacterium avium-intracellulare, Exp. Series II, strain 5, read-out: MIC
  MIC: 7.3 µg/mL
Mycobacterium avium-intracellulare, Exp. Series II, strain 6, read-out: MIC
  MIC: 3.6 µg/mL
Mycobacterium avium-intracellulare, Exp. Series II, strain 7, read-out: MIC
  MIC: 3.6 µg/mL
Mycobacterium avium-intracellulare, Exp. Series II, strain 8, read-out: MIC
  MIC: 3.6 µg/mL
Mycobacterium avium-intracellulare, Exp. Series II, strain 9, read-out: MIC
  MIC: 3.6 µg/mL
Mycobacterium avium-intracellulare, Exp. Series II, strain 10, read-out: MIC
  MIC: 14.5 µg/mL
Mycobacterium avium-intracellulare, Exp. Series II, strain 11, read-out: MIC
  MIC: 7.3 µg/mL
Mycobacterium avium-intracellulare, Exp. Series II, strain 12, read-out: MIC
  MIC: 10.9 µg/mL
Mycobacterium avium-intracellulare, Exp. Series II, strain 13, read-out: MIC
  MIC: 18.2 µg/mL
Mycobacterium avium-intracellulare, Exp. Series II, strain 14, read-out: MIC
  MIC: 18.2 µg/mL
Mycobacterium avium-intracellulare, Exp. Series II, strain 15, read-out: MIC
  MIC: 7.3 µg/mL
Mycobacterium avium-intracellulare, Exp. Series II, strain 16, read-out: MIC
  MIC: 7.3 µg/mL
Mycobacterium avium-intracellulare, Exp. Series III, strain 1, read-out: MIC
  MIC: 3.6 µg/mL
Mycobacterium avium-intracellulare, Exp. Series III, strain 2, read-out: MIC
  MIC: 14.5 µg/mL
Mycobacterium avium-intracellulare, Exp. Series III, strain 3, read-out: MIC
  MIC: 3.6 µg/mL
Mycobacterium avium-intracellulare, Exp. Series III, strain 4, read-out: MIC
  MIC: 3.6 µg/mL
Mycobacterium avium-intracellulare, Exp. Series III, strain 5, read-out: MIC
  MIC: 7.3 µg/mL
Mycobacterium avium-intracellulare, Exp. Series III, strain 6, read-out: MIC
  MIC: 7.3 µg/mL
Mycobacterium avium-intracellulare, Exp. Series III, strain 7, read-out: MIC
  MIC: 7.3 µg/mL
Mycobacterium avium-intracellulare, Exp. Series III, strain 8, read-out: MIC
  MIC: 3.6 µg/mL
Mycobacterium avium-intracellulare, Exp. Series III, strain 9, read-out: MIC
  MIC: 3.6 µg/mL
Mycobacterium avium-intracellulare, Exp. Series III, strain 10, read-out: MIC
  MIC: 14.5 µg/mL
Mycobacterium avium-intracellulare, Exp. Series III, strain 11, read-out: MIC
  MIC: 7.3 µg/mL
Mycobacterium avium-intracellulare, Exp. Series III, strain 12, read-out: MIC
  MIC: 7.3 µg/mL
Mycobacterium avium-intracellulare, Exp. Series III, strain 13, read-out: MIC
  MIC: > 18.2 µg/mL
Mycobacterium avium-intracellulare, Exp. Series III, strain 14, read-out: MIC
  MIC: 14.5 µg/mL
Mycobacterium avium-intracellulare, Exp. Series III, strain 15, read-out: MIC
  MIC: 7.3 µg/mL
Mycobacterium avium-intracellulare, Exp. Series III, strain 16, read-out: MIC
  MIC: 3.6 µg/mL
